Results from patent US20110301159A1, “KINASE INHIBITOR COMPOUNDS” (UNIVERSITY OF SOUTH FLORIDA, priority 2008, published 2011).
≈ marks a conversion by molar mass, not a printed value. Where two headings read alike, the source gives them in different places.

Assays:
[1] = Aqueous solubility (MultiScreen Solubility Filter Plate); assay type: physicochemical; conditions: MultiScreen Solubility Filter Plate (Millipore), kinetic from dmso stock
Procedure: (§1) Methods: Jak2-V617F expressing Human Erythroleukemia (HEL) cells were plated in 96 well plates at ˜40,000 cells per well and incubated with either vehicle control (0.25% DMSO) or with 25 uM of Jak2 kinase inhibitors. Viable cell numbers were then determined at the times (0, 4, 24, 48 and 72 hours) via trypan blue exclusion and a hemocytometer. Aqueous solubility was determined using a MultiScreen® Solubility Filter Plate (Millipore) (see Quantitative method to determine drug aqueous solubility: optimization and correlation to standard methods; http://www.millipore.com/techpublications/tech1/an1730en00) and a Spectrophotometer.

[2] = tested on: Jak2-V617F expressing Human Erythroleukemia (HEL) cells; experiment: Inhibition of Jak2-V617F dependent HEL cell growth (trypan blue viable cell count); assay type: cell-based; conditions: for inhibition at 25 µM: Homo sapiens, HEL; for inhibition at 25 µM / % Growth Inhibition: 25 uM inhibitor
Procedure: as §1

[3] = tested on: Jak2-V617F expressing HEL cells; experiment: Apoptosis assay (Annexin V/Propidium Iodide FACS); assay type: cell-based, Human; conditions: 25 μM, 48 hours
Procedure: Jak2-V617F expressing HEL cells were exposed to either vehicle control (DMSO), or 25 μM of an inhibitor for 48 hours. The percentage of apoptotic cells was then determined via Annexin V/Propidim Iodide FACS analysis.

[4] = tested on: Marrow derived mononuclear cells (polycythemia vera, Jak2-V617F positive); experiment: Ex vivo colony formation of marrow cells from a polycythemia vera patient; assay type: cell-based, human; conditions: 25 or 2.5 μM
Procedure: Methods: Marrow derived mononuclear cells were obtained from a person, who has been confirmed to have polycythemia vera and also identified as Jak2-V617F positive. Marrow derived mononuclear cells were washed three times in IMDM media and plated at 4×10^5 cells/mL in 1 mL methylcellulose media (0.9% methylcellulose, 30% heat inactivated FCS, 0.1 mM 2-mercaptoethanol, 0.9% BSA, 0.05% NaHCO3, 2 mM/L glutamine, penicillin, streptomycin, 50 ng/mL SCF, and 20 ng/mL IL-3 (Stem Cell Technologies, Vancouver, BC). Vehicle control (DMSO at 0.25%) or inhibitors were added at the indicated concentrations (25 or 2.5 μM). EPO (1 U/mL) was also added as indicated. The cultures were then incubated at 37° C. and 5% CO2 until assessment of colony formation at day 14. Results were expressed as the average number of colonies from duplicate cultures per 4×10^5 cells.

[5] = tested on: Jak2-V617F expressing Human Erythroleukemia (HEL) cells; experiment: Inhibition of Jak2-V617F dependent HEL cell growth (trypan blue viable cell count); assay type: cell-based; conditions: for IC50: read-out: IC50 for inhibition on Jak2-V617F dependent HEL cells proliferation
[6] = tested on: HEL cells; experiment: Jak2-V617F-induced hematopoietic disease in NOD-SCID mouse model (HEL cell injection); assay type: in vivo, NOD-SCID mice
Procedure: Methods: In the experiment, NOD-SCID mice, N=36. were randomized into 6 groups (n=6). Baseline peripheral blood samples and weights were taken at Day 0. At day 7, 2×10^6 HEL cells were injected into each mouse in Groups 2, 3, 4 and 5. […] Then all the mice were euthanized.
In the experiment, the following measurable endpoints were assessed. For peripheral blood, total white blood cell (WBC) counts, the percentage of blast cells, the percentage of nucleated red blood cells (RBC), and Hematocrits were measured. For bone marrow, quantitative cellularity, and Myeloid cell to erythroid cell (M:E) ratio were assessed. Further, toxicity in spleen, brain, kidney, liver, and lung using histological analysis is assessed.
Peripheral blood samples were obtained via weekly submandibular bleeds using a 21 gauge needle. Blood samples were smeared onto glass slides, stained, and dried. Peripheral blast cells on each slide were then tabulated using a pathology light microscope. The average percent of peripheral blast cells for each treatment group was then graphed as a function of time.
At necropsy, femurs from each animal were formalin fixed, de-calcified and then parrafin embedded. Parrafin sections were then made, stained with hematoxylin and eosin and dried. The number of myeloid and erythroid cells were then tabulated by a veterinary pathologist who was blind to the treatment groups. The ratio of myeloid to erythroid cells was then graphed as a function of treatment group. Further, the average number of mature and immature erythroid cells was then graphed as a function of treatment group.
Additionally, at necropsy, animals were weighed one final time and spleens were then removed from each mouse. The wet weight of each spleen was recorded and the spleen weight to body weight ratio was graphed as a function of treatment group.

[7] = tested on: Marrow derived mononuclear cells (Essential Thrombocythemia, Jak2-V617F positive); experiment: Ex vivo Jak2-V617F dependent megakaryocyte colony formation (essential thrombocythemia patient); assay type: cell-based, human; conditions: 25 uM, day 14
Excerpt: Marrow derived mononuclear cells were taken from a person, who was confirmed Essential Thrombocythemia and being Jak2-V617F positive.

[8] = biological target: T1, recombinant p60c-src (Homo sapiens, UniProt P12931); experiment: c-Src assay (in vitro kinase reaction, anti-Src pY418 Western blot); assay type: biochemical; conditions: 25 uM, 20 minutes, room temperature
T1 construct: purchased Upstate Biotechnology
Procedure: Approximately 4 μL (12 units) of catalytically active recombinant p60c-src (Upstate Biotechnology) was incubated in 46 μL of in vitro kinase reaction buffer (50 mM HEPES, pH 7.6, 5 mM MnCl2, 5 mM MgCl2, 100 mM NaCl, 0.5 mM DTT), either in the presence of DMSO or 25 uM Z3. The reactions were incubated for 20 minutes at room temperature and then
terminated by addition of SDS-containing buffer. The samples were Western blotted with an anti-Src (pY418) polyclonal antibody (Biosource).

CCN(CC)Cc1ccc(/C=C\c2ccc(CN(CC)CC)c(O)c2)cc1O [NB-5, (Z)- and (E)-5,5′-(Ethene-1,2-diyl)bis(2-((diethylamino)methyl)phenol)]
solubility [1]: 509 µM (≈ 195 µg/mL)
inhibition at 25 µM [2]: 101%

Oc1cc(/C=C/c2ccc(CN3CCCCC3)c(O)c2)ccc1CN1CCCCC1 [NB-12, (Z)- and (E)-5,5′-(Ethene-1,2-diyl)bis(2-(piperidin-1-ylmethyl)phenol)]
solubility [1]: 484 µM (≈ 197 µg/mL)
inhibition at 25 µM [2]: 100%

CCN(CC)Cc1ccc(/C=C/c2ccc(CN(CC)CC)c(O)c2)cc1O [NB-10, (Z)- and (E)-5,5′-(Ethene-1,2-diyl)bis(2-((diethylamino)methyl)phenol).2HCl]
solubility [1]: 474 µM
inhibition at 25 µM [2]: 100%

CCN(CC)Cc1ccc(/C(C)=C(/C)c2ccc(CN(CC)CC)c(O)c2)cc1O [NB-3, (Z)- and (E)-5,5′-(But-2-ene-2,3-diyl)bis(2-((diethylamino)methyl)phenol)]
solubility [1]: 460 µM (≈ 189 µg/mL)
inhibition at 25 µM [2]: 101%

(Z)- and (E)-4,4′-(But-2-ene-2,3-diyl)bis(2-((diethylamino)methyl)phenol) [NB-2]
% of Cells in Apoptosis [3]: 28%
suppressing HEL cell growth compared with G6 [3]: not as effective as G6
pathologic cell growth (colony formation at day 14) [4]: reduce pathologic cell growth
% Growth Inhibition ([2]; 25 µM): 53%
IC50 ([5]; HEL cells): ~9 µM

CCN(CC)Cc1cc(/C=C/c2ccc(O)c(CN(CC)CC)c2)ccc1O [NB-1, (Z)- and (E)-4,4′-(Ethene-1,2-diyl)bis(2-((diethylamino)methyl)phenol)]
% of Cells in Apoptosis [3]: 66%
suppressing HEL cell growth compared with G6 [3]: behaves similarly to G6
solubility [1]: 533 µM (≈ 204 µg/mL)
pathologic cell growth (colony formation at day 14) [4]: reduce pathologic cell growth
inhibition at 25 µM [2]: 98%
IC50 ([5]; Homo sapiens, HEL): ~4 µM

CCN(CC)Cc1ccc(/C(C)=C(\C)c2ccc(CN(CC)CC)c(O)c2)cc1O [NB-8, (Z)- and (E)-5,5′-(But-2-ene-2,3-diyl)bis(2-((diethylamino)methyl)phenol).2HCl]
solubility [1]: 272 µM
inhibition at 25 µM [2]: 100%

C/C(=C(\C)c1ccc(CN(C)C)c(O)c1)c1ccc(CN(C)C)c(O)c1 [NB-9, (Z)- and (E)-5,5′-(But-2-ene-2,3-diyl)bis(2-((dimethylamino)methyl)phenol).2HCl]
solubility [1]: 384 µM
inhibition at 25 µM [2]: 101%

(Z) and (E)-4,4′-(Hex-3-ene-3,4-diyl)bis(2-((diethylamino)methyl)phenol) [Compound G6]
Peripheral blood counts of granulocytes, neutrophils, and eosinophils ([6]; 10 mg/kg/day): all normal
bone marrow necrosis ([6]; 10 mg/kg/day): 2 of 6
histology of brain, kidney, liver, and lung ([6]; 10 mg/kg/day): histologically normal
splenic necrosis ([6]; 10 mg/kg/day): 3 of 6
percentage of blast cells in peripheral blood ([6]; 0.1-10 mg/kg/day): reduces the percentage of blast cells in peripheral blood in a dose-dependent manner
numbers of mature and immature Erythroid cells in bone marrow ([6]; mouse, in vivo): reduced numbers of mature Erythroid cells, not immature Erythroid cells
% of Cells in Apoptosis [3]: 79%
Jak2-V617F dependent megakaryocyte colony formation [7]: blocks Jak2-V617F dependent megakaryocyte colony formation
c-Src tyrosine kinase activity [8]: no effect on c-Src tyrosine kinase activity
pathologic cell growth (colony formation at day 14) [4]: reduce pathologic cell growth
time required to inhibit Jak2-V617F dependent cell proliferation by 50% [2]: ~11 h
% Growth Inhibition [2]: 100%
Jak2-V617F dependent HEL cell proliferation, dose and time dependence ([5]; HEL cells): Inhibits Jak2-V617F Dependent HEL Cell Proliferation in both a dose and time dependent manner
IC50 ([5]; HEL cells): ~4 µM

C/C(=C(/C)c1ccc(CN(C)C)c(O)c1)c1ccc(CN(C)C)c(O)c1 [NB-4, (Z)- and (E)-5,5′-(But-2-ene-2,3-diyl)bis(2-((dimethylamino)methyl)phenol)]
solubility [1]: 478 µM (≈ 169 µg/mL)
inhibition at 25 µM [2]: 101%

Oc1cc(/C=C\c2ccc(CN3CCCCC3)c(O)c2)ccc1CN1CCCCC1 [NB-7, (Z)- and (E)-5,5′-(Ethene-1,2-diyl)bis(2-(piperidin-1-ylmethyl)phenol)]
solubility [1]: 495 µM (≈ 201 µg/mL)
inhibition at 25 µM [2]: 99%

CN(C)Cc1ccc(/C=C\c2ccc(CN(C)C)c(O)c2)cc1O [NB-6, (Z)- and (E)-5,5′-(Ethene-1,2-diyl)bis(2-((dimethylamino)methyl)phenol)]
solubility [1]: 538 µM (≈ 176 µg/mL)
inhibition at 25 µM [2]: ~19%
